Measured values taken from ChEMBL document CHEMBL1201862, “PubChem BioAssay data set” (2004).
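Five compound concentrations were applied to cells in 96-well plates for 48 hours; endpoints were derived by simple linear interpolation of the resulting dose-response curve. GI50: concentration for 50% inhibition of growth.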 Activity calls are given as the source filed them. Cut-off read from the data, not from the text of the source: active = GI50 up to about 1.1 µM and inactive = higher.

Tests used:
Experiment in all cases: NCI tumour cell line growth inhibition, 48 h
[1] = test system: IGROV-1
[2] = test system: LOX IMVI
[3] = test system: HT-29
[4] = test system: TK-10
[5] = test system: SF-539
[6] = test system: SF-268
[7] = test system: SK-MEL-2
[8] = test system: KM12
[9] = test system: SR
[10] = test system: SK-MEL-5
[11] = test system: OVCAR-8
[12] = test system: NCI-H23
[13] = test system: COLO 205
[14] = test system: SNB-75
[15] = test system: SK-MEL-28
[16] = test system: DMS-114
[17] = test system: RPMI-8226
[18] = test system: A498

Measured: GI50

COc1nc2c(c(O)c(C)c(=O)n2OC2OC(COC(C)=O)C(OC(C)=O)C(OC(C)=O)C2OC(C)=O)c(=O)n1C (stereo not drawn)
inactive: [1] > 100 µM | [2] > 100 µM | [3] > 100 µM | [4] > 100 µM | [5] > 100 µM | [6] > 100 µM | [7] > 100 µM | [8] > 100 µM | [9] > 100 µM | [10] > 100 µM | [11] > 100 µM | [12] > 100 µM | [13] > 100 µM | [14] > 100 µM | [15] > 100 µM | [16] > 100 µM

CCOC1=C2N=C(C(CC)c3ccccc3F)N=C2C(=O)c2ccccc21 (stereo not drawn)
inactive: [3] > 100 µM | [4] 3.27 µM | [5] > 100 µM | [6] > 100 µM | [7] > 100 µM | [8] > 100 µM | [9] > 100 µM | [11] > 100 µM | [17] > 100 µM | [12] > 100 µM | [13] > 100 µM | [14] 25.4 µM | [15] > 100 µM | [16] > 100 µM

Cc1ccc(S(=O)(=O)C(CC(NC=O)S(=O)(=O)c2ccc(C)cc2)NC=O)cc1 (stereo not drawn)
inactive: [18] > 100 µM | [1] > 100 µM | [2] > 100 µM | [3] > 100 µM | [4] > 100 µM | [5] > 100 µM | [6] > 100 µM | [8] > 100 µM | [9] > 100 µM | [10] > 100 µM | [11] > 100 µM | [17] > 100 µM | [12] > 100 µM | [13] > 100 µM | [14] > 100 µM | [16] > 100 µM

CSc1nnc(C(C#N)C#N)nn1
inactive: [18] > 100 µM | [1] > 100 µM | [2] > 100 µM | [3] > 100 µM | [4] > 100 µM | [5] > 100 µM | [6] > 100 µM | [8] > 100 µM | [9] > 100 µM | [10] > 100 µM | [11] > 100 µM | [17] > 100 µM | [12] > 100 µM | [13] > 100 µM | [14] > 100 µM | [16] > 100 µM

O=C(O)/C(Cl)=C(Cl)/C=N/NC(=O)c1cc2ccccc2cc1O
inactive: [18] 24.6 µM | [1] 15.5 µM | [3] 38.6 µM | [4] 35.5 µM | [5] 29.6 µM | [6] 7.66 µM | [7] 16 µM | [8] 36.8 µM | [9] 9.55 µM | [10] 9.82 µM | [11] 19.7 µM | [17] 6.71 µM | [12] 8.57 µM | [13] 32.5 µM | [14] 3.38 µM | [15] 29.8 µM | [16] 17.3 µM

C/C=C/C#CC#C/C=C/C=C/C(O)CCO (stereo not drawn)
inactive: [1] > 23.1 µM | [2] > 23.1 µM | [3] > 23.1 µM | [4] > 23.1 µM | [5] > 23.1 µM | [6] > 23.1 µM | [7] > 23.1 µM | [8] > 23.1 µM | [9] > 23.1 µM | [10] > 23.1 µM | [11] > 23.1 µM | [17] > 23.1 µM | [12] > 23.1 µM | [13] > 23.1 µM | [14] 17.7 µM | [15] > 23.1 µM | [16] > 23.1 µM

C=CCNC(=S)NNC(=O)c1c(C)nc2sccn12
inactive: [1] > 100 µM | [2] > 100 µM | [3] > 100 µM | [4] > 100 µM | [5] > 100 µM | [6] > 100 µM | [7] > 100 µM | [8] > 100 µM | [9] > 100 µM | [10] > 100 µM | [11] > 100 µM | [12] > 100 µM | [13] > 100 µM | [15] > 100 µM | [16] > 100 µM

CC(=O)OC1CC2(C)OC(Cc3ccccc32)O1 (stereo not drawn)
inactive: [1] > 100 µM | [2] > 100 µM | [3] > 100 µM | [4] > 100 µM | [5] > 100 µM | [6] > 100 µM | [7] > 100 µM | [8] > 100 µM | [9] > 100 µM | [11] > 100 µM | [17] > 100 µM | [12] > 100 µM | [13] > 100 µM | [14] 65.9 µM | [15] > 100 µM | [16] > 100 µM

NNC(=O)N/N=C1\C(=O)N(c2ccc(Cl)c(Cl)c2)C(=O)C(=O)C1c1nc2ccccc2s1 (stereo not drawn)
inactive: [18] > 100 µM | [1] > 100 µM | [3] > 100 µM | [4] > 100 µM | [5] > 100 µM | [6] > 100 µM | [7] > 100 µM | [8] > 100 µM | [9] 89.9 µM | [10] > 100 µM | [11] > 100 µM | [12] > 100 µM | [13] > 100 µM | [14] > 100 µM | [15] > 100 µM | [16] > 100 µM

O=C(c1ccccc1)c1c(CNCc2ccccc2)n(C(=O)c2ccccc2)c2ccccc12
inactive: [1] > 100 µM | [3] 24.6 µM | [4] > 100 µM | [5] 69.3 µM | [6] 43.4 µM | [7] 63.4 µM | [8] 18.9 µM | [9] 6.58 µM | [10] 29.9 µM | [11] 37.4 µM | [17] 11.6 µM | [12] 17.1 µM | [13] 47 µM | [14] 2.84 µM | [15] > 100 µM | [16] 21.2 µM

COc1ccc(N2C(=O)C3CC(c4ccc(C)cc4)c4c([nH]c5ccccc45)C3C2=O)cc1 (stereo not drawn)
inactive: [18] 30.2 µM | [1] 38 µM | [2] 6.92 µM | [3] 16.3 µM | [4] 36.5 µM | [5] 23.7 µM | [6] 19.5 µM | [7] > 75.2 µM | [8] > 41.1 µM | [9] 2.02 µM | [10] 63.1 µM | [11] 5.43 µM | [12] > 45.8 µM | [13] 20.7 µM | [14] 18.4 µM | [15] > 49.9 µM | [16] > 49.7 µM

Cc1ccc(-c2cc(=O)c3cc(C)c(C)c(C(=O)O)c3o2)cc1
inactive: [18] > 100 µM | [1] > 100 µM | [2] > 100 µM | [3] > 100 µM | [4] > 100 µM | [5] 29.9 µM | [6] > 100 µM | [7] > 100 µM | [8] > 100 µM | [10] > 100 µM | [11] > 100 µM | [17] > 100 µM | [12] > 100 µM | [13] > 100 µM | [14] 47.9 µM | [15] > 100 µM | [16] > 100 µM
